Measured values published in patent US20100255099A1, “CLAVULANATE FORMULATION FOR NEUROPROTECTION AND TREATMENT OF NEURODEGENERATIVE DISORDERS” (REXAHN PHARMACEUTICALS, INC., priority 2007, published 2010).
“Also recorded” adds a separate entry of the source. Like-named read-outs stand apart in the source and are kept apart here.

Tests used:
[1] = tested on: cresyl violet positive neurons in the hippocampal CA3 region; assay: Kainate animal model: cresyl violet staining of hippocampus; type: in vivo, Sprague Dawley rats
Protocol: (§1) As a neuroprotectant, clavulanate was tested in the Kainate animal model. Thirty male Sprague Dawley rats weighing 300-350 grams were separated into three groups. One hour prior to kainate treatment, seven animals are treated with clavulanate at an IP dose of 10 μg/kg while the remaining animals were given saline vehicle. Kainate was given IP at a dose of 20 mg/kg to the seven clavulanate treated animals and 13 saline vehicle treated animals. […] Sixty minutes post kainate treatment the animals were given another IP injection (10 μg/kg) of clavulanate or saline vehicle. Animals that survived kainate treatment were sacrificed seven days later and their brains examined for histological changes in the hippocampus. Ten untreated control animals of the same weight and age as the experimental animals were sacrificed and their hippocampal morphology used as a standard for comparison.
On completion of the experiment, animals were anesthetized by IP injection of 10 mg/kg pentobarbital sodium, then perfused transcardially with 100 ml of PBS at pH 7.4, follow by 250 ml of 4% paraformaldehyde in PBS over a 5 min period. The brains were removed from the skull and post-fixed by immersion in the same fixative solution for 4 h, then transferred to 30% sucrose in PBS. After equilibration in the sucrose solution, coronal sections were cut using the cryocut at a thickness of 40 μm into storing solution and stored at 4° C. prior to staining. All stains are carried out on a 1 in 5 series of sections. […]
To evaluate the effects of clavulanate against kainate induced neuronal damage, the measurement of neuronal number was performed using an image analyzing system equipped with a computer-based CCD camera (Multiscan, Fullerton, Calif.). The number of cresyl violet positive neurons was counted in a 1 mm diameter of hippocampus in five sections per animal. […] Data are expressed as the mean±SEM. The data were evaluated by a one-way ANOVA SPSS program and the means assessed using Duncan's multiple-range test. […]

Kainate animal model = assay: Kainate animal model: seizure and survival; type: in vivo, Sprague Dawley rats
Protocol: as §1

[2] = tested on: TH-positive neurons in the substantia nigra pars compacta (SNpc); assay: Tyrosine hydroxylase immunohistochemistry in MPTP model; type: in vivo, C57BL/6 mice; conditions: for TH-positive (TH-IR) neurons within the SNpc: clavulanate treated groups (ip and ga) compared to MPTP-saline group
Protocol: The neuroprotectant effects of clavulanate was tested in an MPTP (1-methyl-4-phenyl-1,2,3,6-tetrahydropyridine) induced Parkinson's disease animal model. Eight week old male C57BL/6 mice were separated into six groups of ten. Three times (one time per day) prior to MPTP treatment, ten animals were treated with clavulanate at a particular dose and route of administration (Groups 2-5) while the remaining animals (groups 1 and 6) were given saline vehicle. (See Table 13.) MPTP was given four times intraperitoneally at a dose of 20 mg/kg (total of 80 mg/kg). Two times (one time per day) post MPTP treatment, animals were given another administration of clavulanate or saline vehicle. Animals were tested for changes in behavior. Animals that survived MPTP treatment were sacrificed 7 days later and their brains examined for histological changes in the substantia nigra pars compacta (SNpc). Ten untreated control animals of the same weight and age as the experimental animals were sacrificed and their hippocampal morphology used as a standard for comparison.
On completion of the experiment, animals were anesthetized by IP injection of 10 mg/kg pentobarbital sodium, then perfused transcardially with 10 ml of PBS at pH 7.4, follow by 50 ml of 4% paraformaldehyde in PBS over a 5 min period. The brains were removed from the skull and post-fixed by immersion in the same fixative solution for 4 h, then transferred to 30% sucrose in PBS. After equilibration in the sucrose solution, coronal sections were cut using the cryocut at a thickness of 40 μm into storing solution and stored at 4° C. prior to staining.
Immunohistochemistry was carried out on free floating sections. All stains were carried out on a 1 in 5 series of sections. All sections were stained simultaneously using the same solutions of antibodies and ensuring that incubation times and washes were the same for each brain. […]
Neurons were counted using the optical fractionator, an unbiased method for cell counting that is not affected by either the volume of reference or the size of the counted elements (neurons). […]

[3] = Stability of clavulanate during moisture removal after wet granulation; type: physicochemical
Protocol: Potassium clavulanate is an exceptionally difficult material to formulate, being extremely moisture and heat sensitive. Degradation readily occurs in the presence of water and aqueous media. Several methods were tested to find a suitable condition for removing moisture after wet granulation that keeps the active ingredient clavulanate intact. The material in sample C was prepared by wet granulation and spheronized. The moisture containing spheronized formulation was transferred to trays and subjected to different storage conditions for the removal of moisture.
Lyophilization retained 97% of the active ingredient after 21 hrs of the freeze drying process.

[4] = administered i.p. at less than 1 μg/kg; cited from earlier work
[5] = rats, i.p. dose of 1 μg/kg; cited from earlier work
[6] = doses ranging from 10 ng to 10 μg/kg (i.p.); cited from earlier work
[7] = Pharmacokinetic study in beagle dogs; type: in vivo; conditions: dog, plasma; for Vd: iv, 4.2 mg
Protocol: The amount of clavulanate in the plasma of beagle dogs was measured by LC/MS/MS method. The chromatographic separation of the analytes was performed on a reverse-phase PLRP-S polymeric column. The retention time of potassium clavulanate and tazobactam (reference compound) were 8.51 and 8.54 min, respectively. The overall chromatographic run time was 25 min. The M/S analysis was performed on an Applied Biosystems' API 2000 triple-quardrupole mass spectrometer by multiple reaction monitoring in negative electrospray ionization mode. The mass spectral data were analyzed by Analyst 1.4.1 (Applied Biosystems). The pharmacokinetic analysis was conducted by using PK Solutions 2.0 (Summit Research Services).
Three male Beagle dogs were used throughout the study in a cross-over design with washout period between treatments. […] The animals were fasted overnight before the administration of the test substance and fed 4 hr post-dosing. During all the treatments, blood samples (1.5 ml) were withdrawn from the cephalic vein by venipuncture into heparinized tubes at 0, 5, 15, 30 min, 1, 1.5, 2, 2.5, 3, 4, 6, 9 and 12 hr after dosing. Plasma was obtained via centrifugation at 3,000 rpm for 10 min and analyzed by an LC-MS/MS system.
Three male beagle dogs were used throughout the study in a cross-over design with washout period between treatments. The dogs were given the test substances as aqueous solution via intravenous routes with no shorter than 24 hr washout period between dosing. The animals were fasted overnight before the administration of the test substance and fed 4 hr post-dosing. During all the treatments, blood samples (1.5 ml) were withdrawn from the cephalic vein by venipuncture into heparinized tubes at 0, 5, 15, 30 min, 1, 1.5, 2, 2.5, 3, 4, 6, 9 and 12 hr after dosing. Plasma was obtained via centrifugation at 3,000 rpm for 10 min and analyzed by an LC-MS/MS system.
Four male beagle dogs were used throughout the study in a cross-over design with washout period between treatments. The dogs were given the test substances as ER tablet of Example 3C via oral routes with no shorter than 24 hr washout period between dosing. The animals were fasted overnight before the administration of the test substance and fed 4 hr post-dosing. During all the treatments, blood samples (1.5 ml) were withdrawn from the cephalic vein by venipuncture into heparinized tubes at 1, 2, 3, 4, 5, 6, 7, 8, 9, 10, 11 and 12 hr after dosing. Plasma was obtained via centrifugation at 3,000 rpm for 10 min and analyzed by an LC-MS/MS system.

[8] = Moisture sorption of potassium clavulanate powder at different relative humidity; type: physicochemical; conditions: for Moisture Content (%) (g H2O/g dry solid) / Moisture Content (%) (g H2O/g wet solid): 96 hr
Protocol: Potassium clavulanate in its solid form is both hygroscopic and unstable in the presence of water vapor. A stability study of clavulanate was conducted with monitoring by chromatographic methods. The static or equilibrium approach was approached by storing samples in chambers at different relative humidity in an attempt to generate a sorption isotherm. The sorption isotherm represents the quantitative relationship between the equilibrium moisture content and relative humidity (RH) in the atmosphere.

[9] = compared to controls given saline only
[10] = IV aqueous solution, dose 4.2 mg, male beagle dogs

O=C(O)[C@H]1/C(=C/CO)O[C@@H]2CC(=O)N21 [clavulanate]
pyramidal neurons positive to cresyl violet ([1]; CA3 stratum pyramidale, 7 days after kainate, compared to the normal group): 88.7%
morphology of neurons in CA3 ([1]; compared to animals treated with kainate-saline): normal morphology
neuroprotective effect on kainate induced hippocampal cell death (CA3 region) ([1]; kainate treated rats): strong neuroprotective effect; also recorded: significant neuroprotective effect
onset to seizure (Kainate animal model; [9]): longer onset to seizure
seizure activity (Kainate animal model; [9]): mild seizure activity
Survival rate (%) (Kainate animal model; kainate 20 mg/kg IP, clavulanate 10 μg/kg IP 1 hr before and 60 min after kainate): 100%
Seizure rate (Kainate animal model; seizure rating scale (Sperk et al., 1983), 60-120 min after kainate treatment): 0-1
fatality (Kainate animal model; within 24 hrs of kainate treatment): no fatality
TH-positive (TH-IR) neurons within the SNpc [2]: significantly protected; also recorded: preservation
TH-positive (TH-IR) neurons within the SNpc ([2]; listed as Clavulanate): well preserved
protection of TH-positive SNpc neurons, gavage versus ip ([2]; following gavage treatment): greater protection
Clavulanate (%) ([3]; Freeze dry: sub-zero, 21 hr): 97%
degradation ([3]; drying in a fluid bed system, 1.5 hr): 13%

O=C(O)[C@H]1/C(=C/CO)O[C@@H]2CC(=O)N21 [clavulanic acid]
anxiolytic activity [4]: anxiolytic activity
neuroprotectant activity [5]: potent neuroprotectant activity
CNS activity and behavior [6]: alter CNS activity and behavior

O=C(O)[C@H]1/C(=C/CO)O[C@@H]2CC(=O)N21 [potassium clavulanate]
AUC(0-t) [7, 10]: 684 ng·h/mL
MRT inf [7, 10]: 39 min
clearance [7, 10]: 96.7 mL/min
bioavailability ([7]; IV aqueous solution, dose 4.2 mg, male beagle dogs, read-out: F (bioavailability)): 100%
half-life ([7]; IV aqueous solution, dose 4.2 mg, male beagle dogs, read-out: t1/2 (converted)): 31.2 min
Vd ([7]; male, beagle, IV aqueous solution, dose 4.2 mg, male beagle dogs, read-out: Vd): 4.4 L
Vd ([7]; male, beagle, IV aqueous solution, dose 4.2 mg, male beagle dogs, read-out: Vss): 3.8 L
bioavailability ([7]; male, beagle, po, given orally, fasted animals, read-out: average bioavailability): 30 to 41%
half-life ([7]; male, beagle dogs, read-out: apparent terminal half-life (converted)): 30 min
humidity above which deliquescence would eventually occur [8]: above 40 % relative humidity
Moisture Content (%) (g H2O/g dry solid) ([8]; 33% RH): 0.713%
Moisture Content (%) (g H2O/g wet solid) ([8]; 33% RH): 0.708%
Moisture Content (%) (g H2O/g dry solid) ([8]; 35% RH): 0.737%
Moisture Content (%) (g H2O/g wet solid) ([8]; 35% RH): 0.733%
Moisture Content (%) (g H2O/g dry solid) ([8]; 37% RH): 0.848%
Moisture Content (%) (g H2O/g wet solid) ([8]; 37% RH): 0.842%
Moisture Content (%) (g H2O/g dry solid) ([8]; 39% RH): 1.280%
Moisture Content (%) (g H2O/g wet solid) ([8]; 39% RH): 1.264%
Moisture Content (%) (g H2O/g dry solid) ([8]; 41% RH): 1.566%
Moisture Content (%) (g H2O/g wet solid) ([8]; 41% RH): 1.542%
Moisture Content (%) (g H2O/g dry solid) ([8]; 43% RH): 4.140%
Moisture Content (%) (g H2O/g wet solid) ([8]; 43% RH): 3.976%
Moisture Content (%) (g H2O/g dry solid) ([8]; 45% RH): 5.018%
Moisture Content (%) (g H2O/g wet solid) ([8]; 45% RH): 4.778%
Moisture Content (%) (g H2O/g dry solid) ([8]; 47% RH): 14.708%
Moisture Content (%) (g H2O/g wet solid) ([8]; 47% RH): 12.823%
rate of moisture absorption ([8]; dry potassium clavulanate exposed to about 50% relative humidity): approximately 1.44 % per hour
moisture content on a dry weight basis ([8]; exposed to about 35% or less of relative humidity for 96 hr): < 1%
degradation ([3]; storage at 30° C. for 69 hr (storage 1)): up to 45%
degradation ([3]; storage at 45° C. for 75 hr (storage 2)): ≤ 60%
